Measurements from patent US9226517B2, “Use of iminocyclitols as inhibitors of bacterial adherence to epithelial cells” (Taihua Shouyue (Hong Kong) International Co Limited, priority 2010, dated 2016).
“And” between values parts separate entries of the source, which are not always exact repeats. Equal values may be shown once.

Experiments:
Streptococcus mutans [1] = experiment: Bacterial agglutination assay; type: cell-based
Description: (§1) Bacteria used in the assay were Escherichia coli, Salmonella tphimurium and Streptococcus mutans, from over night cultures. The bacteria were inoculated in the 100 ml flask with Luria medium. The bacteria were grown for 24 h at 37° C. After incubation, Agar Luria medium plates were inoculated. After 24 h suspensions of each strain were prepared in PBS medium (10^8 CFU/ml). Serial dilutions of the products to be tested, D-fagomine and D-fagomine tartrate (20 ppm, 200 ppm, 2000 ppm) were made. The dilutions were mixed with bacterial suspensions in a 1:1 ratio. After 90 min. at room temperature the suspensions were observed under optical microscope. They were compared with the control culture without any product added.
(§2) Bacteria used in the assay were Escherichia coli, Salmonella tphimurium, Streptococcus mutans, Lactobacillus casei and Bifidobacterium sp., from over night cultures. The bacteria were inoculated in the 100 ml flask with Luria medium. The bacteria were grown for 24 h at 37° C. After incubation, Agar Luria medium plates were inoculated. After 24 h suspensions of each strain were prepared in PBS medium (10^8 CFU/ml). Serial dilutions of the product to be tested, D-fagomine tartrate (10 ppm, 20 ppm, 2000 ppm) were made. The dilutions were mixed with bacterial suspensions in a 1:1 ratio. After 90 min. at room temperature the suspensions were observed under optical microscope. They were compared with the control culture without any product added. The Escherichia coli and Salmonella tphimurium were compared with a positive control culture (mannose 0.05M).

Salmonella tphimurium = experiment: Bacterial agglutination assay; type: cell-based; settings: for agglutination relative to the corresponding positive control: positive control mannose 0.05M
Description: as §1, §2

Escherichia coli [2] = experiment: Bacterial agglutination assay; type: cell-based; settings: for agglutination relative to the corresponding positive control: positive control mannose 0.05M
Description: as §1, §2

Lactobacillus casei = experiment: Bacterial agglutination assay; type: cell-based; settings: Example 2; 90 min room temperature
Description: as §2

Bifidobacterium sp. = experiment: Bacterial agglutination assay; type: cell-based; settings: Example 2; 90 min room temperature
Description: as §2

S. mutans = settings: Islam et al. 2008; compound isolated from M. alba; cited from earlier work
[3] = Castillo et al., Organic Letter 2006; cited from earlier work
Bifidobacterium = experiment: Adhesion to mucus; type: cell-based
Description: (§3) • Adhesion to mucus. Protocol Day 1
(§4) The bacteria was inoculated in the tube with 3 ml Luria medium. The bacteria were grown for 24 h at 37° C. The tube was incubated overnight (1 10^7-1 10^8 UCF/ml).
(§5) The mucus (1 ml) is defrosted at room temperature. 100 ml of PBS medium was prepared. The defrosted mucus (1 ml) was centrifuged at 8000 rpm for 10 minutes. The mucus (1 ml) was transferred to an aliquot with sterile PBS (99 ml). Each well is inoculated with 2.5 ml from the mixture and the plate is kept in the fridge (4° C.) overnight.
(§6) The plate was taken out from the fridge an the wash was made. 2 ml was extracted from each well. PBS (1 ml) was added, then was extracted, at the end there was 0.5 ml in the well.
(§7) The tubes that were grown overnight, were diluted (1 10^7 UCF/ml).
(§8) The final volume in each well was: PBS 0.5 ml plus bacterial suspension 0.5 ml plus D-fagomine 0.5 ml (or PBS in control case). It was prepared 2 plates (duplicated strains). Product concentration in the wells (10 ppm, 20 ppm, 40 pppm). Mannose concentration 0.05M (control well). The wells were inoculated and the plates were incubated at 37° C. for 90 minutes. After the 90 minutes, the supernatant of each well (10 μl) were observed under optical microscope. It was added 1 ml of each well in eppendorfs. The eppendords were kept on the fridge. Two wash were made with PBS. The wells washes of the same strain were recoleted in a falcon tube and they were kept at 4° C. PBS (1 ml) was added in each well and the plates were inoculated with 100 μl of each tubes at the adecuated dilutions.
(§9) The plates were recounted

[4] = test system: Lactobacillus acidophilus; experiment: Adhesion to mucus; type: cell-based
Description: as §3, §4, §5, §6, §7, §8, §9

Streptococcus mutans [5] = experiment: Glass surface adherence assay; type: cell-based; settings: for G/MG (Glass/Mannose glass): vs mannose 0.05 M
Description: Glass surface adherence assay was performed. The bacterium used in the assay was Streptococcus mutans from over night cultures (1 10^10 UCF/ml). The bacterium was grown for 18 h at 37° C. in PBS medium. The bacteria from the overnight culture (0.25 ml) were grown for 18 h at […] in a glass dish with the specific medium (0.5 ml). After the 18 h, 0.25 ml of D-fagomine (10 ppm, 20 ppm and 40 ppm) was added. In the control plate was added only PBS. After 90 min. the cells were transfered (0.5 ml) to a falcon tube, then were washed two times with PBS (0.5 ml each time). The wash of each bacteria was collected in a falcon tube and was kept at 4° C. The cells (100 μl) were seeded in the plates in TSA medium. The cells adhered were scrapped. In each well, it was added 0.5 ml of sterile PBS. The plaques with 100 μl were inoculated. The plaques were counted.

Salmonella = experiment: Adhesion to mucus (mucosal epitelial cells); type: cell-based
Description: (§10) • Mucus: mucosal epitelial cells • Adhesion to mucus. Protocol Day 1
(§11) The bacteria was inoculated in the tube, with 3 ml Luria medium. The bacteria were grown for 24 h at 37° C. The tube was incubated overnight (1 10^8-1 10^9 UCF/ml).
(§12) The mucus (1 ml) is defrosted at room temperature. PBS medium (100 ml) was prepared. The defrosted mucus was centrifuged at 8000 rpm for 10 minutes. The mucus (1 ml) was transferred to an aliquot with sterile PBS (99 ml) (1:100). Each well is inoculated with 2.5 ml from the mixture and the plate is kept in the fridge (4° C.) overnight.
(§13) The plate was taken out from the fridge. 2 ml was extracted from each well. PBS (1 ml) was added, then was extracted, at the end there was 0.5 ml in the well.
(§14) The tubes that were grown overnight were diluted (1 10^7 UCF/ml).
(§15) The final volume in each well was: PBS 0.5 ml plus bacterial suspension 0.5 ml plus D-fagomine 0.5 ml (or PBS in control case).
(§16) Two plates were prepared (duplicated strains). Product concentration in the wells (10 ppm, 20 ppm, 40 pppm). Mannose concentration 0.05M (control well).
(§17) The wells were inoculated and the plates were incubated at 37° C. for 90 minutes.
(§18) After the 90 minutes, the supernatant of each well (10 μl) were observed under optical microscope.
(§19) It was added 1 ml of each well in eppendorfs. The eppendords were kept on the fridge. Two wash were made with PBS. The wells washed of the same strain were recoleted in a falcon tube and they were kept at 4° C. PBS (1 ml) was added in each well and the plates were inoculated with 100 μl of each tubes at the adecuated dilutions.
as §9

Escherichia coli [6] = experiment: Adhesion to mucus (mucosal epitelial cells); type: cell-based; settings: for Bacteria in supernatant: duplicates 1 and 2
Description: as §10, §11, §12, §13, §14, §15, §16, §17, §18, §19, §9

[7] = Example 1, 20 ppm, 200 ppm and 2000 ppm, 90 min room temperature, vs control culture
[8] = Example 2, 20 ppm and 200 ppm, 90 min room temperature
[9] = D-fagomine 40 ppm, duplicates 1 and 2
[10] = independently of the D-fagomine concentration (10, 20, 40 ppm)

O=C(O)C(O)C(O)C(=O)O.OC[C@H]1NCC[C@@H](O)[C@@H]1O [D-fagomine tartrate]
agglutination of the cells (optical microscope) (Streptococcus mutans [1]; [7]): agglutinated | agglutination of the cells (optical microscope) (Streptococcus mutans [1]; Example 2, 10 ppm): not at 10 ppm | agglutination of the cells (optical microscope) (Streptococcus mutans [1]; [8]): agglutinated | agglutination relative to the corresponding positive control (Salmonella tphimurium; 20 ppm): about 60% | agglutination relative to the corresponding positive control (Salmonella tphimurium; 200 ppm): about 70% | agglutination of the cells (optical microscope) (Salmonella tphimurium; [7]): agglutinated | agglutination of the cells (optical microscope) (Salmonella tphimurium; Example 2, 10 ppm): not at 10 ppm | agglutination of the cells (optical microscope) (Salmonella tphimurium; [8]): agglutinated | agglutination relative to the corresponding positive control (Escherichia coli [2]; 20 ppm): about 60% | agglutination relative to the corresponding positive control (Escherichia coli [2]; 200 ppm): about 70% | agglutination of the cells (optical microscope) (Escherichia coli [2]; [7]): agglutinated | agglutination of the cells (optical microscope) (Escherichia coli [2]; Example 2, 10 ppm): not at 10 ppm | agglutination of the cells (optical microscope) (Escherichia coli [2]; [8]): agglutinated | agglutination of the cells (optical microscope) (Lactobacillus casei): not agglutinated | agglutination of the cells (optical microscope) (Bifidobacterium sp.): not agglutinated

OC[C@H]1NC[C@H](O)[C@@H](O)[C@@H]1O [1-deoxynojirimycin]
anti-microbial activity against S. mutans (S. mutans): anti-microbial activity

OC[C@H]1NCC[C@@H](O)[C@@H]1O [D-fagomine, (2R, 3R, 4R)-2-hydroxymethylpiperidine-3,4-diol]
antimicrobial activity [3]: do not show antimicrobial activity | Product M/Control M (Bifidobacterium; D-fagomine 20 ppm): 1.14 | Product M/Control M (Bifidobacterium; D-fagomine 40 ppm): 3.50 | M/Manose M ([4]; D-fagomine 10 ppm): 1.31 | Product M/Control M ([4]; D-fagomine 10 ppm): 5.58 | M/Manose M ([4]; D-fagomine 20 ppm): 1.31 | Product M/Control M ([4]; D-fagomine 20 ppm): 5.58 | Product M/Control M ([4]; D-fagomine 40 ppm): 3.94 | antiadherence activity in respect of the control (Streptococcus mutans [5]; 10 ppm, 20 ppm and 40 ppm): has antiadherence activity | PG/CG (Product glass/Control glass without product) (Streptococcus mutans [5]; D-fagomine 10 ppm): 1.60 | G/MG (Glass/Mannose glass) (Streptococcus mutans [5]; D-fagomine 10 ppm): 1.60 | G/MG (Glass/Mannose glass) (Streptococcus mutans [5]; D-fagomine 20 ppm): 1.35 | Bacteria in supernatant (Salmonella; D-fagomine 10 ppm, duplicates 1 and 2): 78.4% and 91.8% | Bacteria in supernatant (Salmonella; D-fagomine 20 ppm, duplicates 1 and 2): 98.2% and 95.5% | Bacteria in supernatant (Salmonella; [9]): 98.2% and 84.1% | Supernatant/mucus (Salmonella; [9]): 5.27 UCF/ml | agglutination of microorganisms with the mucus (Salmonella; [10]): not agglutinated with the mucus | Bacteria in supernatant (Escherichia coli [6]; D-fagomine 10 ppm): 94.5% and 95.1% | Bacteria in supernatant (Escherichia coli [6]; D-fagomine 20 ppm): 96.3% and 99.0% | Bacteria in supernatant (Escherichia coli [6]; D-fagomine 40 ppm): 99.2% and 98.6% | agglutination of microorganisms with the mucus (Escherichia coli [6]; [10]): not agglutinated with the mucus | agglutination of the cells (optical microscope) (Streptococcus mutans [1]; [7]): agglutinated | agglutination of the cells (optical microscope) (Salmonella tphimurium; [7]): agglutinated | agglutination of the cells (optical microscope) (Escherichia coli [2]; [7]): agglutinated
